Experimental data: paper PMC9516332 (Frontiers in Oncology, 2022)
pIC50: −log10 of the molar value. Where two headings read alike, the source gives them in different places.

System: 134 cancer cell lines
Assay: Cell viability assay (ATPlite, 72 hours), IC50 on cancer cell line panel

Cn1cnc2c(F)c(Nc3ccc(Br)cc3Cl)c(C(=O)NOCCO)cc21 [selumetinib]
pIC50 (Homo sapiens, MG-63, read-out: IC50 in cell proliferation assay, MG-63 cell line): 5.22
pIC50 (Homo sapiens, MIA PaCa-2, read-out: IC50 in cell proliferation assay, MIA PaCa-2 cell line): 6.66
pIC50 (Homo sapiens, MKN-45, read-out: IC50 in cell proliferation assay, MKN45 cell line (MET amplification)): 5.57
pIC50 (Homo sapiens, MOLM-13, read-out: IC50 in cell proliferation assay, MOLM-13 cell line (FLT3 ITD)): 6.09
pIC50 (Homo sapiens, MOLT-4, read-out: IC50 in cell proliferation assay, MOLT-4 cell line): < 4.50
pIC50 (Homo sapiens, MV4-11, read-out: IC50 in cell proliferation assay, MV4-11 cell line (FLT3 ITD)): 6.75
pIC50 (Homo sapiens, MeWo, read-out: IC50 in cell proliferation assay, MeWo cell line): 5.27
pIC50 (Homo sapiens, NCCIT, read-out: IC50 in cell proliferation assay, NCC-IT cell line): 4.59
pIC50 (Homo sapiens, NCI-H82, read-out: IC50 in cell proliferation assay, cell line NCI-H82): 5.17
pIC50 (Homo sapiens, NCI-H460, read-out: IC50 in cell proliferation assay, NCI-H460 cell line): 6.53
pIC50 (Homo sapiens, NCI-H661, read-out: IC50 in cell proliferation assay, NCI-H661 cell line): < 4.50
pIC50 (Homo sapiens, NCI-H716, read-out: IC50 in cell proliferation assay, cell line NCI-H716 (FGFR2-COL14A1)): 6.71
pIC50 (Homo sapiens, NCI-H1650, read-out: IC50 in cell proliferation assay, NCI-H1650 cell line (EGFR exon19del)): < 4.50
pIC50 (Homo sapiens, NCI-H1975, read-out: IC50 in cell proliferation assay, NCI-H1975 cell line (EGFR p.L858R + p.T790M)): 5.72
pIC50 (Homo sapiens, NCI-H2228, read-out: IC50 in cell proliferation assay, NCI-H2228 cell line (EML4-ALK)): 6.53
pIC50 (Homo sapiens, OVCAR-3, read-out: IC50 in cell proliferation assay, cell line OVCAR-3): < 4.50
pIC50 (Homo sapiens, PFSK-1, read-out: IC50 in cell proliferation assay, cell line PFSK-1): < 4.50
pIC50 (Homo sapiens, RL95-2, read-out: IC50 in cell proliferation assay, cell line RL95-2 (EGFR p.A289V)): 7.92
pIC50 (Homo sapiens, RPMI-7951, read-out: IC50 in cell proliferation assay, cell line RPMI-7951 (BRAF p.V600E)): 6.84
pIC50 (Homo sapiens, RS4-11, read-out: IC50 in cell proliferation assay, cell line RS4;11): 4.74
pIC50 (Homo sapiens, Rec1, read-out: IC50 in cell proliferation assay, cell line REC-1): < 4.50
pIC50 (Homo sapiens, SHP77, read-out: IC50 in cell proliferation assay, cell line SHP-77): < 4.50
pIC50 (Homo sapiens, SK-BR-3, read-out: IC50 in cell proliferation assay, cell line SK-BR-3 (ERBB2 amplification)): < 4.50
pIC50 (Homo sapiens, SK-N-AS, read-out: IC50 in cell proliferation assay, cell line SK-N-AS): 7.70
pIC50 (Homo sapiens, SK-N-FI, read-out: IC50 in cell proliferation assay, cell line SK-N-FI): 5.08
pIC50 (Homo sapiens, SK-N-MC, read-out: IC50 in cell proliferation assay, cell line SK-N-MC): < 4.50
pIC50 (Homo sapiens, SK-N-SH, read-out: IC50 in cell proliferation assay, cell line SK-N-SH (ALK p.F1174L)): 7.18
pIC50 (Homo sapiens, SNU-5, read-out: IC50 in cell proliferation assay, cell line SNU-5 (MET amplification)): 5.88
pIC50 (Homo sapiens, SNU-16, read-out: IC50 in cell proliferation assay, cell line SNU-16 (FGFR2 amplification)): < 4.50
pIC50 (Homo sapiens, SNU-C2B, read-out: IC50 in cell proliferation assay, cell line SNU-C2B (EGFR p.R165Q)): 7.44
pIC50 (Homo sapiens, SU-DHL-1, read-out: IC50 in cell proliferation assay, cell line SU-DHL-1 (NPM1-ALK)): 5.11
pIC50 (Homo sapiens, SU-DHL-6, read-out: IC50 in cell proliferation assay, cell line SU-DHL-6): < 4.50
pIC50 (Homo sapiens, SUP-T1, read-out: IC50 in cell proliferation assay, cell line SUP-T1): < 4.50
pIC50 (Homo sapiens, SW48, read-out: IC50 in cell proliferation assay, cell line SW48 (EGFR p.G719S)): 7.47
pIC50 (Homo sapiens, SW480, read-out: IC50 in cell proliferation assay, cell line SW480): 7.54
pIC50 (Homo sapiens, SW626, read-out: IC50 in cell proliferation assay, cell line SW626): 7.36
pIC50 (Homo sapiens, SW780, read-out: IC50 in cell proliferation assay, cell line SW780 (FGFR3-BAIAP2L1)): 6.35
pIC50 (Homo sapiens, SW837, read-out: IC50 in cell proliferation assay, cell line SW837): 6.66
pIC50 (Homo sapiens, SW872, read-out: IC50 in cell proliferation assay, cell line SW872 (BRAF p.V600E)): 7.60
pIC50 (Homo sapiens, SW900, read-out: IC50 in cell proliferation assay, cell line SW900): 7.46
pIC50 (Homo sapiens, SW948, read-out: IC50 in cell proliferation assay, cell line SW948): 7.21
pIC50 (Homo sapiens, SW982, read-out: IC50 in cell proliferation assay, cell line SW982 (BRAF p.V600E)): 6.01
pIC50 (Homo sapiens, SW-620, read-out: IC50 in cell proliferation assay, cell line SW620): 7.62
pIC50 (Homo sapiens, T98G, read-out: IC50 in cell proliferation assay, cell line T98G): < 4.50
pIC50 (Homo sapiens, TCC-SUP, read-out: IC50 in cell proliferation assay, cell line TCCSUP): < 4.50
pIC50 (Homo sapiens, THP-1, read-out: IC50 in cell proliferation assay, cell line THP-1): 7.60
pIC50 (Homo sapiens, U2OS, read-out: IC50 in cell proliferation assay, cell line U2OS): 4.97
pIC50 (Homo sapiens, U-87 MG, read-out: IC50 in cell proliferation assay, cell line U-87MG ATCC): 5.96
pIC50 (Homo sapiens, U-118-MG, read-out: IC50 in cell proliferation assay, cell line U-118MG): < 4.50
pIC50 (Homo sapiens, UMUC3, read-out: IC50 in cell proliferation assay, cell line UM-UC-3): 6.10
pIC50 (Hs766T, read-out: IC50 in cell proliferation assay, Hs 766T cell line): 7.66
pIC50 (L-82, read-out: IC50 in cell proliferation assay, L-82 cell line (NPM1-ALK)): 6.02
pIC50 (Rh30, read-out: IC50 in cell proliferation assay, cell line Rh30): < 4.50
pIC50 (read-out: IC50 in cell proliferation assay, 11-18 cell line (EGFR p.L858R)): < 4.50
pIC50 (read-out: IC50 in cell proliferation assay, Hs 852.T cell line): 6.46
pIC50 (read-out: IC50 in cell proliferation assay, JAR cell line): < 4.50
pIC50 (read-out: IC50 in cell proliferation assay, cell line 5637): 5.10
pIC50 (read-out: IC50 in cell proliferation assay, cell line A-388): < 4.50
pIC50 (read-out: IC50 in cell proliferation assay, cell line DB): < 4.50
pIC50 (read-out: IC50 in cell proliferation assay, cell line DEL (NPM1-ALK)): < 4.50
pIC50 (read-out: IC50 in cell proliferation assay, cell line ES-2 (BRAF p.V600E)): 6.62
pIC50 (read-out: IC50 in cell proliferation assay, cell line PA-1): 6.25
pIC50 (read-out: IC50 in cell proliferation assay, cell line PC-3): < 4.50
pIC50 (read-out: IC50 in cell proliferation assay, cell line RD): 7.23
pIC50 (read-out: IC50 in cell proliferation assay, cell line RKO (BRAF p.V600E)): 6.44
pIC50 (read-out: IC50 in cell proliferation assay, cell line RL): < 4.50
pIC50 (read-out: IC50 in cell proliferation assay, cell line RT-4 (FGFR3-TACC3)): 4.67
pIC50 (read-out: IC50 in cell proliferation assay, cell line SR (NPM1-ALK)): 4.59
pIC50 (read-out: IC50 in cell proliferation assay, cell line T24): 7.04
pIC50 (read-out: IC50 in cell proliferation assay, cell line TT (RET p.C634W)): < 4.50
pIC50 (read-out: IC50 in cell proliferation assay, cell line VA-ES-BJ): < 4.50
